{"source": "patent US20020107197A1", "about": "“Ligands for G protein coupled receptors and methods of using them” (priority 2000, published 2002)", "format_in_all_cases": "cell-based", "key": {"GPR4 [1]": {"molecular_target": "T1, GPR4 (Homo sapiens, UniProt P46093)", "T1 construct": "were used to generate full length GPR4, which was digested with EcoRI and Xba I and cloned into the pBs3HA vector; expressed in transfected cells", "T1 sequence (P46093 whole entry)": "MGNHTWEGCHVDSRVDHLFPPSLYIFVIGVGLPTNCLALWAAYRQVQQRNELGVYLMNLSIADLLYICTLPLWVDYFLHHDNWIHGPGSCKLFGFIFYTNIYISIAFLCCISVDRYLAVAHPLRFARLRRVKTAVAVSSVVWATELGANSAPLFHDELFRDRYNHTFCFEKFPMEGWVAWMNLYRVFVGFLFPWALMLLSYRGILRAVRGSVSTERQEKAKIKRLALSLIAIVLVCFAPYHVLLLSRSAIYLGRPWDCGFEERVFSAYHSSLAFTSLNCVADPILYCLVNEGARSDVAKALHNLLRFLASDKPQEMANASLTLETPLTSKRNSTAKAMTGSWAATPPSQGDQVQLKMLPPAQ", "experiment": "ERK MAP kinase activation (phospho-ERK Western blot) in GPR4-infected Swiss 3T3 cells", "conditions": "PTX 100 ng/ml 12-16 h", "procedure": "MAP kinases are key signaling intermediates of DNA synthesis and cell proliferation. Swiss 3T3 cells were infected with MSCV GPR4-ires-GFP or MSCV ires-GFP, and subsequently cells sorted by FACS for positive expression of GFP as described previously (Kabarowski et al. (2000) Proc Natl Acad Sci USA. 97, 12109-12114). Cells were plated in 6-well plates in DMEM containing 5% FBS, serum-starved overnight, and then treated lipids in DMEM for the indicated times. Cells were lysed on ice in RIPA buffer containing 50 mM Tris-HCl, pH 7.5, 1% Nonidet P-40, 0.5% deoxycholate,0.1% SDS, 150 mM NaCl, 2 mM EGTA, 25 mM sodium fluoride, 1 mM sodium orthovanadate, and 1× protease inhibitors (Sigma P8340). Lysates containing equal amounts of protein were separated on 10% SDS-polyacrylamide gels and transferred onto nitrocellulose membranes. Antibodies against phosphorylated ERK1/2 (Cell Signaling Technologies; Beverly, Mass.) were used to probe the membrane and the ECL system (Amersham) was used for detection. To normalize the amounts of protein loaded in each lane, membranes were stripped and re-probed with antibodies against total ERK (Cell Signaling Technologies). In some experiments, cells were pretreated with 100 ng/ml PTX for 12-16 h prior to SPC and LPC stimulation."}, "GPR4 [2]": {"molecular_target": "T1, GPR4", "experiment": "DNA synthesis ([3H]thymidine incorporation) in GPR4-infected Swiss 3T3 cells", "conditions": "PTX 100 ng/ml for 16 h; GFP- and GPR4-GFP expressing cells", "procedure": "The effect of SPC and LPC on DNA synthesis was measured using [^3H] thymidine incorporation. Briefly, GPR4-ires-GFP- and GFP-Swiss 3T3 cells were plated in 96-well plates, serum-starved for 24 h, and treated with SPC, LPC, or other lipids in serum-free DMEM for 24 h. Cells were incubated with 0.75 μCi/ml [^3H]thymidine in serum-free DMEM for the last 18 h. Cells were harvested onto filter papers presoaked in 1% polyethylenimine using the automated cell harvester HARVEST 96. Incorporated [^3H]thymidine was counted in a 1450 Microbeta Trilux Liquid Scintillation and Luminescence Counter (Perkin-Elmer-Wallac, Inc.)."}, "GPR4 [3]": {"molecular_target": "T1, GPR4", "experiment": "Single-cell intracellular calcium assay (fura-2) in GPR4-GFP-transfected MCF10A cells", "conditions": "PTX 100 ng/ml, 16 h pretreatment", "procedure": "Measurement of [Ca^2+]i, was performed as described previously in Xu et al. (2000) Nat Cell Biol 2, 261-267. Briefly, pGPR4-GFP-transfected MCF10A cells were grown in specialized glass-bottom dishes (Bioptech, Inc., Butler, Pa.) and loaded with fura-2 in HEPES buffered saline. Using a dual-wavelength spectrofluorometer (RFK-6002, Photon Technology Int'l, So. Brunswick, N.J.) coupled to an inverted fluorescence microscope (Olympus, IX-70, Lake Success, N.Y.), GFP-positive cells were identified using an excitation wavelength of 488 nm, a dichroic 505 nm long-pass filter and an emitter filter at bandpass of 535 nm (Chroma Technology, Brattleboro, Vt.). Measurements of [Ca^2+]i were performed on individual GPR4-GFP positive cells at excitation wavelengths of 340 and 380 nm and an emission wavelength of 510 nm. Conversion of the 340/380 ratio value into [Ca^2+]i in nM was estimated by comparing the cellular fluorescence ratio with ratios acquired using fura-2 (free acid) in buffers containing known Ca^2+ concentrations. [Ca^2+]i was then calculated as described by Grynkiewicz et al. (1985) J Biol Chem 260, 3440-3450. All calcium assays were performed in the presence of 1 mM EGTA in the assay buffers. Therefore, intracellular calcium release, not calcium influx, was analyzed.\nTo test whether GPR4 is a receptor for SPC, MCF10A cells were transiently transfected with pGPR4-GFP.\nThe GFP receptor fusion was used to identify positively transfected cells, and single-cell calcium assays were performed as described in our previous studies, such as Xu et al. (2000) Nat Cell Biol 2, 261-267."}, "OGR1": {"molecular_target": "T2, OGR1 (Homo sapiens, UniProt Q15743)", "T2 construct": "expressed in transfected cells", "T2 sequence (Q15743 whole entry, species assumed)": "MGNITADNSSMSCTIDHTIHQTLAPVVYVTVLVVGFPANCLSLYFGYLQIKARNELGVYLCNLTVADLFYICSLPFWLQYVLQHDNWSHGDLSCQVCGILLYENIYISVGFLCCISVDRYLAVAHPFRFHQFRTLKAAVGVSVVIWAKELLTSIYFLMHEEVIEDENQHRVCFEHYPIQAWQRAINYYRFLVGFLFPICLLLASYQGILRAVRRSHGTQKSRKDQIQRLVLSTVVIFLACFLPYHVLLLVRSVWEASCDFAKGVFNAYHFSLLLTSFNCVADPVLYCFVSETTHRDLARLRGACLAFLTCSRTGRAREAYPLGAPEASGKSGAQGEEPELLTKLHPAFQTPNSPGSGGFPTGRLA", "experiment": "ERK activation in OGR1-infected Swiss 3T3 cells"}, "GPR4 [4]": {"molecular_target": "T1, GPR4", "experiment": "SRE luciferase reporter in GPR4-transfected HEK293 cells", "conditions": "PTX 100 ng/ml 16 h; C3-exoenzyme co-transfected", "procedure": "The serum-response element (SRE) reporter system is a sensitive assay for receptors of lipid factors (An et al. (1998) J Biol Chem 273, 7906-7910; An et al. (1999) Mol Pharmacol 55, 787-794). The SRE reporter system used herein (pSRE-Luc) was a gift from Dr. Songzhu An (UCSF), or may be purchased from Stratagene (La Jolla, Calif.). Both systems give identical results. HEK293 and HEK293GPR4 cells were cultured in RPMI1640 with 10% FBS in 10 cm dishes to ˜85% confluence. To the cells in each dish, pSRE-Luc (10 μg) was transfected in the presence of 60 μl LipofectAMINE reagent. Cells were seeded in 96-well plates 16 h after transfection, incubated for another 24 h in RPMI1640 with 10% FBS, and starved in serum-free medium for 16 h. SPC (dissolved in PBS to 10 mM) and other lipids (LPCs were dissolved in 70% ethanol. Other lipids were dissolved in PBS, 70-95% ethanol, or 100% MeOH) were diluted in serum free RPMI 1640 and added to the cells, followed by a 10 h incubation. Luciferase activity was measured in Microlite™ 1 plates (DYNEX Technologies, Inc., Virginia) using 60 μl of cell lysate and 20 μl luciferase substrate. PTX (100 ng/ml) was added during the 16 h serum starvation period and pcDNA1-C3 (encoding the C3-exoenzyme, 2 μg) was co-transfected with pSRE-Luc (10 μg). All experiments were performed in quadruplicate and were repeated at least three times. The Student's t test was performed using the GraphPad Instat software (San Diego, Calif.). p<0.05 was considered to be statistically significant."}}}
{"substance": "pertussis toxin [PTX]", "values": [{"measurement": "PTX sensitivity of SPC-induced ERK activation", "setting": "GPR4 [1]", "value": "sensitive to PTX"}, {"measurement": "effect of PTX on DNA synthesis stimulated by SPC", "setting": "GPR4 [2]", "value": "inhibited by PTX"}, {"measurement": "effect of PTX on [Ca2+]i response to SPC and LPC", "setting": "GPR4 [3]", "value": "completely abolished"}, {"measurement": "PTX sensitivity of SPC-induced ERK activation", "setting": "OGR1", "value": "PTX-insensitive"}, {"measurement": "inhibition of SRE-reporter activation by SPC and 16:0-LPC", "setting": "GPR4 [4]", "value": "partially inhibited SRE-reporter activation"}]}
